Data from patent US20020160932A1, “Uncompetitive inhibitors of helicase-primase” (priority 2000, published 2002).
Where two headings read alike, the source gives them in different places.

Tests used:
[1] = system: HSV-1 Walkie; assay: in vivo lethal challenge model, HSV-1 Walki; settings: for in vivo lethal challenge model HSV-1 Walkie ED50: p.o., mice, 3 times a day for 5 days, survival
Protocol: (§1) 6-week old female mice, strain BALB/cABom, were purchased from a commercial breeder (Bomholtgard Breeding and Research Centre Ltd).
(§2) The animals were anaesthetized with diethyl ether (Merck) in a sealed glass vessel. 50 μl of a dilution of the virus stock (dose for infection 5×10^4 Pfu) were introduced with an Eppendorf pippette into the nose of the anaesthetized animals. This dose leads to death of 90-100% of the animals due to a generalized infection with prominent respiratory and central nervous symptoms after on average between 5 and 8 days.
(§3) 6 hours after the infection, the animals were treated with doses of 0.1-100 mg/kg of body weight 3 times day at 7.00 h, 14.00 h and 19 h over a period of 5 days. The substances were dissolved in DMSO and resuspended in Tylose/PBS (Hoechst) (final concentration 1.5% DMSO, 0.5% Tylose in PBS).
(§4) After the last administration, the animals were observed further and the times of death were recorded.

[2] = system: HSV-2 MS; assay: in vivo lethal challenge model, HSV-2 MS; settings: for in vivo lethal challenge model HSV-2 MS ED50: p.o., mice, 3 times a day for 5 days, survival
Protocol: as §1, §2, §3, §4

[3] = system: HSV-2 G; assay: in vitro viral replication assay, human HSV-2 G; assay type: cell-based, herpes simplex virus 2; settings: for IC50: in vitro viral replication assay; for SI human HSV-2 G: selectivity index SI=(CC50/IC50);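 for SI human HSV-2 G: ratio of CC50 to antiviral IC50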
[4] = system: Active substance-resistant HSV-1 (F) mutants; settings: read-out: IC50 Active substance-resistant HSV-1 (F) mutants
[5] = system: clinical isolates (39 HSV-1 and 19 HSV-2 isolates); assay: activity on clinical isolates; assay type: cell-based, herpes simplex virus; settings: 39 HSV-1 and 19 HSV-2 isolates tested
[6] = system: Wild-type HSV-1 (F); assay: in vitro viral replication assay, wild-type HSV-1 (F); assay type: cell-based, herpes simplex virus 1; settings: for IC50: in vitro viral replication assay, read-out: IC50 Wild-type HSV-1 (F); for SI Wild-type HSV-1 (F): selectivity index SI=(CC50/IC50);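 for SI Wild-type HSV-1 (F): ratio of CC50 to antiviral IC50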
[7] = system: BHV; assay: in vitro viral replication assay, bovine BHV; assay type: cell-based; settings: for IC50: in vitro viral replication assay; for SI bovine BHV: selectivity index SI=(CC50/IC50);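 for SI bovine BHV: ratio of CC50 to antiviral IC50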
[8] = system: PRV; assay: cells; assay type: cell-based, porcine (PRV); settings: for IC50: read-out: IC50 porcine PRV

Row | SMILES | ED50 ([1]; Human alphaherpesvirus 1, in Mus musculus, po, 120 h, read-out: in vivo lethal challenge model HSV-1 Walkie ED50) | ED50 ([2]; Human alphaherpesvirus 2, in Mus musculus, po, 120 h, read-out: in vivo lethal challenge model HSV-2 MS ED50, p.o., mice, 3 times a day for 5 days, survival) | IC50 [3] | SI human HSV-2 G [3] | IC50 ([4]; Mutant 2 (UL5 K356N)) | IC50 ([4]; Mutant 6 (UL52 A897T)) | activity on clinical isolates [5] | in vivo lethal challenge model HSV-1 Walkie ED50 [1] | in vivo lethal challenge model HSV-2 MS ED50 [2] | IC50 [6] | SI Wild-type HSV-1 (F) [6] | IC50 [7] | SI bovine BHV [7] | SI porcine PRV [8] | IC50 [8] | IC50 ([4]; mutant not named)
1 | CC(C)[C@H](N)C(=O)OCCOCn1cnc2c(=O)[nH]c(N)nc21 [Valtrex, reference compound] | 17 mg/kg | 14 mg/kg |  |  |  |  |  |  |  |  |  |  |  |  |  | 
2 | CNS(=O)(=O)c1sc(N(C)C(=O)Cc2ccc(-c3ccccc3)cc2)nc1C [Example 4] |  |  | 50 nM | 5000 | > 250000 nM | > 1000 nM | active on all the clinical isolates tested to date | 1 mg/kg | 3 mg/kg | 0.5 nM | 1E+05 | 150 nM | 400 | 66 | 3000 nM | 
3 | CNS(=O)(=O)c1sc(N(C)C(=O)Nc2ccc(-c3ccccc3)cc2)nc1C [Example 3] |  |  | 5 nM | 25000 |  |  |  | 8 mg/kg | 11 mg/kg | 1 nM | 3E+05 |  |  |  |  | > 250000 nM
4 | Cc1nc(N(C)C(=O)Cc2ccc(-c3ccccc3)cc2)sc1S(N)(=O)=O [Example 5] |  |  | 5 nM | 50000 |  |  | active on all the clinical isolates tested to date | 0.5 mg/kg | 1.1 mg/kg |  |  | 50 nM | 5000 | 13 | 8000 nM | 
